Experimental data reported in US11427549B2, “Pyrimidinyloxy benzo-fused compounds as herbicides” (FMC Corporation, priority 2017, dated 2022).

Key:
[1] = tested on: barnyardgrass (Echinochloa crus-galli); assay: Test B flooded paddy test, barnyardgrass; conditions: Echinochloa crus-galli, read-out: Plant response rating, Barnyardgrass (0 to 100 scale, 0 is no effect, 100 is complete control)
[2] = tested on: foxtail, giant (giant foxtail, Setaria faberii); assay: Test A preemergence, foxtail, giant; format: in vivo; conditions: Setaria faberi, pre-emergence, 240 h, 0 to 100 scale (0 no effect, 100 complete control), read-out: Plant response rating, Foxtail, Giant; for pest or weed control at 31 g/ha: 31 g ai/ha; for pest or weed control at 125 g/ha: 125 g ai/ha
[3] = tested on: pigweed (Amaranthus retroflexus); assay: Test A postemergence, pigweed; format: in vivo; conditions: Amaranthus retroflexus, post-emergence, 240 h, 0 to 100 scale (0 no effect, 100 complete control), read-out: Plant response rating, Pigweed; for pest or weed control at 31 g/ha: 31 g ai/ha; for pest or weed control at 125 g/ha: 125 g ai/ha
[4] = tested on: barnyardgrass (Echinochloa crus-galli); assay: Test A preemergence, barnyardgrass; format: in vivo; conditions: Echinochloa crus-galli, pre-emergence, 240 h, 0 to 100 scale (0 no effect, 100 complete control), read-out: Plant response rating, Barnyardgrass; for pest or weed control at 31 g/ha: 31 g ai/ha; for pest or weed control at 125 g/ha: 125 g ai/ha
[5] = tested on: galium (catchweed bedstraw, Galium aparine); assay: Test A postemergence, galium; format: in vivo; conditions: Galium, post-emergence, 240 h, 0 to 100 scale (0 no effect, 100 complete control), read-out: Plant response rating, Galium; for pest or weed control at 31 g/ha: 31 g ai/ha; for pest or weed control at 125 g/ha: 125 g ai/ha
[6] = tested on: ryegrass, Italian (Italian ryegrass, Lolium multiflorum); assay: Test A preemergence, ryegrass, Italian; format: in vivo; conditions: Lolium multiflorum, pre-emergence, 240 h, 0 to 100 scale (0 no effect, 100 complete control), read-out: Plant response rating, Ryegrass, Italian; for pest or weed control at 31 g/ha: 31 g ai/ha; for pest or weed control at 125 g/ha: 125 g ai/ha
[7] = tested on: pigweed (Amaranthus retroflexus); assay: Test A preemergence, pigweed; format: in vivo; conditions: Amaranthus retroflexus, pre-emergence, 240 h, 0 to 100 scale (0 no effect, 100 complete control), read-out: Plant response rating, Pigweed; for pest or weed control at 31 g/ha: 31 g ai/ha; for pest or weed control at 125 g/ha: 125 g ai/ha
[8] = tested on: ragweed (common ragweed, Ambrosia elatior); assay: Test A postemergence, ragweed; format: in vivo; conditions: Ambrosia artemisiifolia, post-emergence, 240 h, 0 to 100 scale (0 no effect, 100 complete control), read-out: Plant response rating, Ragweed; for pest or weed control at 31 g/ha: 31 g ai/ha; for pest or weed control at 125 g/ha: 125 g ai/ha
[9] = tested on: barnyardgrass (Echinochloa crus-galli); assay: Test A postemergence, barnyardgrass; format: in vivo; conditions: Echinochloa crus-galli, post-emergence, 240 h, 0 to 100 scale (0 no effect, 100 complete control), read-out: Plant response rating, Barnyardgrass; for pest or weed control at 31 g/ha: 31 g ai/ha; for pest or weed control at 125 g/ha: 125 g ai/ha
corn (Zea mays) = assay: Test A postemergence, corn; format: in vivo; conditions: Zea mays, post-emergence, 240 h, 0 to 100 scale (0 no effect, 100 complete control); for Corn plant response rating (crop injury, 0 = no effect, 100 = complete kill) at 31 g/ha: 31 g ai/ha; for Corn plant response rating (crop injury, 0 = no effect, 100 = complete kill) at 125 g/ha: 125 g ai/ha
kochia (Kochia scoparia) [10] = assay: Test A postemergence, kochia; format: in vivo; conditions: Bassia scoparia, post-emergence, 240 h, 0 to 100 scale (0 no effect, 100 complete control), read-out: Plant response rating, Kochia; for pest or weed control at 31 g/ha: 31 g ai/ha; for pest or weed control at 125 g/ha: 125 g ai/ha
rice (Oryza sativa) = assay: Test B flooded paddy test, rice; conditions: Oryza sativa, read-out: Plant response rating, Rice (0 to 100 scale, 0 is no effect, 100 is complete control)
[11] = tested on: ryegrass, Italian (Italian ryegrass, Lolium multiflorum); assay: Test A postemergence, ryegrass, Italian; format: in vivo; conditions: Lolium multiflorum, post-emergence, 240 h, 0 to 100 scale (0 no effect, 100 complete control), read-out: Plant response rating, Ryegrass, Italian; for pest or weed control at 31 g/ha: 31 g ai/ha; for pest or weed control at 125 g/ha: 125 g ai/ha
kochia (Kochia scoparia) [12] = assay: Test A preemergence, kochia; format: in vivo; conditions: Bassia scoparia, pre-emergence, 240 h, 0 to 100 scale (0 no effect, 100 complete control), read-out: Plant response rating, Kochia; for pest or weed control at 31 g/ha: 31 g ai/ha; for pest or weed control at 125 g/ha: 125 g ai/ha
[13] = tested on: ducksalad (Heteranthera limosa); assay: Test B flooded paddy test, ducksalad; conditions: Heteranthera limosa, read-out: Plant response rating, Ducksalad (0 to 100 scale, 0 is no effect, 100 is complete control)
[14] = tested on: wheat (Triticum aestivum); assay: Test A postemergence, wheat; format: in vivo; conditions: Triticum aestivum, post-emergence, 240 h, 0 to 100 scale (0 no effect, 100 complete control), read-out: Plant response rating, Wheat; for plant injury at 31 g/ha: 31 g ai/ha; for plant injury at 125 g/ha: 125 g ai/ha
[15] = tested on: blackgrass (Alopecurus myosuroides); assay: Test A postemergence, blackgrass; format: in vivo; conditions: Alopecurus myosuroides, post-emergence, 240 h, 0 to 100 scale (0 no effect, 100 complete control), read-out: Plant response rating, Blackgrass; for pest or weed control at 31 g/ha: 31 g ai/ha; for pest or weed control at 125 g/ha: 125 g ai/ha
[16] = tested on: ragweed (common ragweed, Ambrosia elatior); assay: Test A preemergence, ragweed; format: in vivo; conditions: Ambrosia artemisiifolia, pre-emergence, 240 h, 0 to 100 scale (0 no effect, 100 complete control), read-out: Plant response rating, Ragweed; for pest or weed control at 31 g/ha: 31 g ai/ha; for pest or weed control at 125 g/ha: 125 g ai/ha

Row | Structure (SMILES) | pest or weed control at 250 g/ha [1] [%] | pest or weed control at 31 g/ha [2] [%] | pest or weed control at 125 g/ha [2] [%] | pest or weed control at 31 g/ha [3] [%] | pest or weed control at 125 g/ha [3] [%] | pest or weed control at 31 g/ha [4] [%] | pest or weed control at 125 g/ha [4] [%] | pest or weed control at 31 g/ha [5] [%] | pest or weed control at 125 g/ha [5] [%] | pest or weed control at 31 g/ha [6] [%] | pest or weed control at 125 g/ha [6] [%] | pest or weed control at 31 g/ha [7] [%] | pest or weed control at 125 g/ha [7] [%] | pest or weed control at 31 g/ha [8] [%] | pest or weed control at 125 g/ha [8] [%] | pest or weed control at 31 g/ha [9] [%] | pest or weed control at 125 g/ha [9] [%] | Corn plant response rating (crop injury, 0 = no effect, 100 = complete kill) at 31 g/ha (corn (Zea mays)) [%] | Corn plant response rating (crop injury, 0 = no effect, 100 = complete kill) at 125 g/ha (corn (Zea mays)) [%] | pest or weed control at 31 g/ha (kochia (Kochia scoparia) [10]) [%] | other results
1 | FC(F)(F)CC[C@H]1OCc2cccc(Oc3ncc(Cl)cn3)c21 [Compound 20, 5-Chloro-2-[[(3R)-1,3-dihydro-3-(3,3,3-trifluoropropyl)-4-isobenzofuranyl]oxy]-pyrimidine] | 90 | 100 | 100 | 100 | 100 | 70 | 100 | 90 | 100 | 10 | 60 | 100 | 100 | 30 | 70 | 40 | 100 | 30 | 50 | 90 | pest or weed control at 125 g/ha (kochia (Kochia scoparia) [10]): 100%; plant injury at 250 g/ha (rice (Oryza sativa)): 30%; pest or weed control at 31 g/ha [11]: 30%; pest or weed control at 125 g/ha [11]: 80%; pest or weed control at 31 g/ha (kochia (Kochia scoparia) [12]): 100%; pest or weed control at 125 g/ha (kochia (Kochia scoparia) [12]): 100%; pest or weed control at 250 g/ha [13]: 100%; plant injury at 31 g/ha [14]: 20%; plant injury at 125 g/ha [14]: 90%; pest or weed control at 31 g/ha [15]: 80%; pest or weed control at 125 g/ha [15]: 100%; pest or weed control at 31 g/ha [16]: 30%; pest or weed control at 125 g/ha [16]: 100%
2 | FC(F)(F)CC[C@@H]1OCc2cccc(Oc3ncc(Cl)cn3)c21 [Compound 21, 5-Chloro-2-[[(3S)-1,3-dihydro-3-(3,3,3-trifluoropropyl)-4-isobenzofuranyl]oxy]-pyrimidine] | 0 | 0 | 0 | 20 | 50 | 0 | 20 | 10 | 30 | 0 | 0 | 0 | 0 | 0 | 10 | 0 | 20 | 0 | 20 | 20 | pest or weed control at 125 g/ha (kochia (Kochia scoparia) [10]): 60%; plant injury at 250 g/ha (rice (Oryza sativa)): 0%; pest or weed control at 31 g/ha [11]: 0%; pest or weed control at 125 g/ha [11]: 0%; pest or weed control at 31 g/ha (kochia (Kochia scoparia) [12]): 0%; pest or weed control at 125 g/ha (kochia (Kochia scoparia) [12]): 0%; pest or weed control at 250 g/ha [13]: 70%; plant injury at 31 g/ha [14]: 0%; plant injury at 125 g/ha [14]: 0%; pest or weed control at 31 g/ha [15]: 10%; pest or weed control at 125 g/ha [15]: 30%; pest or weed control at 31 g/ha [16]: 0%; pest or weed control at 125 g/ha [16]: 0%
3 | O=C1c2cccc(Oc3ncc(Cl)cn3)c2C1CCCC(F)(F)F (stereo not drawn) [Compound 22, 2-[(5-Chloro-2-pyrimidinyl)oxy]-8-(4,4,4-trifluorobutyl)bicyclo[4.2.0]octa-1,3,5-trien-7-one] | 35 | 10 | 70 | 30 | 80 | 0 | 60 | 50 | 80 | 0 | 20 | 0 | 30 | 0 | 20 | 20 | 40 | 20 | 30 | 40 | pest or weed control at 125 g/ha (kochia (Kochia scoparia) [10]): 80%; plant injury at 250 g/ha (rice (Oryza sativa)): 0%; pest or weed control at 31 g/ha [11]: 30%; pest or weed control at 125 g/ha [11]: 20%; pest or weed control at 31 g/ha (kochia (Kochia scoparia) [12]): 20%; pest or weed control at 125 g/ha (kochia (Kochia scoparia) [12]): 80%; pest or weed control at 250 g/ha [13]: 80%; plant injury at 31 g/ha [14]: 0%; plant injury at 125 g/ha [14]: 0%; pest or weed control at 31 g/ha [15]: 0%; pest or weed control at 125 g/ha [15]: 50%; pest or weed control at 31 g/ha [16]: 0%; pest or weed control at 125 g/ha [16]: 0%
